Reference: patent US7704995B2 (Exelixis, Inc., priority 2003, dated 2010)
pIC50: −log10 of the molar value. Where two headings read alike, the source gives them in different places.

Target: T1, Chk1 (Homo sapiens, UniProt O14757)
T1 construct: purchased Upstate Biotechnology
T1 sequence (O14757 1-476): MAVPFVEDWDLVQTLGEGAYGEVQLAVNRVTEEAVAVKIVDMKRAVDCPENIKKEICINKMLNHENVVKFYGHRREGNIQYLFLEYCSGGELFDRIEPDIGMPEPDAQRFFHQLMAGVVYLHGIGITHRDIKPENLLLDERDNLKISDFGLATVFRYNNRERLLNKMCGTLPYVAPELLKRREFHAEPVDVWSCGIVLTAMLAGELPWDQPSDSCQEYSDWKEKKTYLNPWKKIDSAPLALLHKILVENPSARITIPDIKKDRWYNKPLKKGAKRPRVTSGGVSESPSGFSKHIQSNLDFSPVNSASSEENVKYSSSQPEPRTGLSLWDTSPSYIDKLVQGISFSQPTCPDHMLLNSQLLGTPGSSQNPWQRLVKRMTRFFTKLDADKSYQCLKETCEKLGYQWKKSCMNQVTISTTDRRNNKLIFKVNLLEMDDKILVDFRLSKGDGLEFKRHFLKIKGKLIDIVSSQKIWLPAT
Assay: Chk1 kinase assay: incorporation of γ-33P ATP into immobilized myelin basic protein
Type: biochemical
Settings: read-out: Chk1 IC50
Method in brief: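 Radiometric filter-free format: Chk1 10 nM, 10 μM ATP; Chk2 20 nM, 30 μM ATP; γ-33P ATP tracer; immobilized MBP substrate; Hepes pH 7.6, 10 mM MgCl2, 1 mM DTT; 1 h RT; 1% DMSO. Scintillation counting of washed plates. IC50/Ki from curve fit.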

[1] = Table 11, Chk1 only, class symbols A-D

Row | Structure (SMILES) | pIC50 | further results
1 | CNC(=O)c1nc(-c2cccc(C(=O)NCc3ccc(N(C)C)cc3)c2)cnc1N [Example 238, 3-amino-6-{3-[({[4-(dimethylamino)phenyl]methyl}amino)carbonyl]phenyl}-N-methylpyrazine-2-carboxamide] | 6.00 to 7.30 | –
2 | COc1ccc(C(=O)NCc2cccc(-c3cnc(N)c(C(=O)N[C@H]4CCCNC4)n3)c2)cc1 [Example 932, 3-amino-6-{3-[({[4-(methyloxy)phenyl]carbonyl}amino)methyl]phenyl}-N-[(3S)-piperidin-3-yl]pyrazine-2-carboxamide] | – | pIC50 [1]: > 7.30
3 | CS(=O)(=O)c1ccc(CNC(=O)c2cccc(-c3cnc(N)c(C(=O)N[C@H]4CCCNC4)n3)c2)cc1 [Example 859, 3-amino-6-{3-[({[4-(methylsulfonyl)phenyl]methyl}amino)carbonyl]phenyl}-N-[(3S)-piperidin-3-yl]pyrazine-2-carboxamide] | – | pIC50 [1]: > 7.30
4 | CNC(=O)c1nc(-c2cccc(C(=O)NCc3ccccc3Br)c2)cnc1N [Example 305, 3-amino-6-[3-({[(2-bromophenyl)methyl]amino}carbonyl)phenyl]-N-methylpyrazine-2-carboxamide] | 6.00 to 7.30 | –
5 | CCNC(=O)c1nc(-c2cccc(C(=O)NCc3ccccc3)c2)cnc1N [Example 272, 3-amino-N-ethyl-6-(3-{[(phenylmethyl)amino]carbonyl}phenyl)pyrazine-2-carboxamide] | 5.00 to 6.00 | –
6 | CNC(=O)c1nc(-c2cccc(C(=O)NCc3cc(Br)ccc3F)c2)cnc1N [Example 256, 3-amino-6-[3-({[(5-bromo-2-fluorophenyl)methyl]amino}carbonyl)phenyl]-N-methylpyrazine-2-carboxamide] | 6.00 to 7.30 | –
7 | CNC(=O)c1nc(-c2ccc3ccnc(NCc4ccccc4)c3c2)cnc1N [Example 516, 3-amino-N-methyl-6-{1-[(phenylmethyl)amino]isoquinolin-7-yl}pyrazine-2-carboxamide] | – | pIC50 (Table 11, Chk1 only): 5.00 to 6.00
8 | Nc1ncc(-c2cccc(CN[C@H]3CCc4ccccc43)c2)nc1-c1nnc(Cc2ccccc2)[nH]1 [Example 555, 5-(3-{[(1S)-2,3-dihydro-1H-inden-1-ylamino]methyl}phenyl)-3-[5-(phenylmethyl)-4H-1,2,4-triazol-3-yl]pyrazin-2-amine] | – | pIC50 (Table 11, Chk1 only): 6.00 to 7.30
9 | CNC(=O)c1nc(-c2cccc(CN[C@H]3CCCc4ccccc43)c2)cnc1N [Example 436, 3-amino-N-methyl-6-(3-{[(1S)-1,2,3,4-tetrahydronaphthalen-1-ylamino]methyl}phenyl)pyrazine-2-carboxamide] | – | pIC50 (Table 11, Chk1 only): > 7.30
10 | CNC(=O)c1nc(-c2cccc(CNC3CCc4c(F)cc(F)cc43)c2)cnc1N (stereo not drawn) [Example 474, 3-amino-6-(3-{[(4,6-difluoro-2,3-dihydro-1H-inden-1-yl)amino]methyl}phenyl)-N-methylpyrazine-2-carboxamide] | – | pIC50 (Table 11, Chk1 only): 6.00 to 7.30
11 | Nc1ncc(-c2cccc(C(=O)NCc3cccc(F)c3F)c2)nc1C(=O)N[C@H]1CCCCNC1 [Example 1007, 3-amino-N-[(3S)-azepan-3-yl]-6-[3-({[(2,3-difluorophenyl)methyl]amino}carbonyl)phenyl]pyrazine-2-carboxamide] | – | pIC50 [1]: > 7.30
12 | CNC(=O)c1nc(-c2cccc(C(=O)NCC3CC3)c2)cnc1N [Example 219, 3-amino-6-(3-{[(cyclopropylmethyl)amino]carbonyl}phenyl)-N-methylpyrazine-2-carboxamide] | 6.00 to 7.30 | –
13 | CNC(=O)c1nc(-c2cccc(C(=O)NCC(C)(C)C)c2)cnc1N [Example 252, 3-amino-6-(3-{[(2,2-dimethylpropyl)amino]carbonyl}phenyl)-N-methylpyrazine-2-carboxamide] | 5.00 to 6.00 | –
14 | CNC(=O)c1nc(-c2cccc(C(=O)NCc3ccccc3N3CCOCC3)c2)cnc1N [Example 341, 3-amino-N-methyl-6-[3-({[(2-morpholin-4-ylphenyl)methyl]amino}carbonyl)phenyl]pyrazine-2-carboxamide] | 6.00 to 7.30 | –
15 | Nc1ncc(-c2cccc(C(=O)N[C@H]3CCc4ccccc43)c2)nc1C(=O)N[C@H]1CCNC1 [Example 644, 3-amino-6-(3-{[(1S)-2,3-dihydro-1H-inden-1-ylamino]carbonyl}phenyl)-N-[(3S)-pyrrolidin-3-yl]pyrazine-2-carboxamide] | – | pIC50 (Table 11, Chk1 only): > 7.30
16 | CNC(=O)c1nc(-c2cccc(C(=O)N[C@@H]3CCN(Cc4ccccc4)C3)c2)cnc1NCc1ccccc1 [Example 363, N-methyl-3-[(phenylmethyl)amino]-6-[3-({[(3R)-1-(phenylmethyl)pyrrolidin-3-yl]amino}carbonyl)phenyl]pyrazine-2-carboxamide] | 6.00 to 7.30 | –
17 | COC[C@H]1CCCN1NC(=N)c1nc(-c2cccc(C(=O)NCc3ccccc3)c2)cnc1N [Example 624, 3-{5-amino-6-[imino({(2R)-2-[(methyloxy)methyl]pyrrolidin-1-yl}amino)methyl]pyrazin-2-yl}-N-(phenylmethyl)benzamide] | – | pIC50 (Table 11, Chk1 only): ≤ 5.00
18 | Nc1ncc(-c2cccc(C(=O)NCc3ccccc3)c2)nc1C(=O)NCCCNC(=O)c1ccncc1 [Example 650, 3-amino-6-(3-{[(phenylmethyl)amino]carbonyl}phenyl)-N-{3-[(pyridin-4-ylcarbonyl)amino]propyl}pyrazine-2-carboxamide] | – | pIC50 (Table 11, Chk1 only): 5.00 to 6.00
19 | CNC(=O)c1nc(-c2ccc3ccnc(N[C@H]4CCc5ccccc54)c3c2)cnc1N [Example 525, 3-amino-6-{1-[(1S)-2,3-dihydro-1H-inden-1-ylamino]isoquinolin-7-yl}-N-methylpyrazine-2-carboxamide] | – | pIC50 (Table 11, Chk1 only): 6.00 to 7.30
20 | CNC(=O)c1nc(-c2cccc(C(=O)NCc3ccc(Cl)c(Cl)c3)c2)cnc1N [Example 279, 3-amino-6-[3-({[(3,4-dichlorophenyl)methyl]amino}carbonyl)phenyl]-N-methylpyrazine-2-carboxamide] | 6.00 to 7.30 | –
21 | Nc1ncc(-c2cccc(CNC(=O)c3ccc4c(c3)CCO4)c2)nc1C(=O)N[C@H]1CCCNC1 [Example 936, 3-amino-6-(3-{[(2,3-dihydro-1-benzofuran-5-ylcarbonyl)amino]methyl}phenyl)-N-[(3S)-piperidin-3-yl]pyrazine-2-carboxamide] | – | pIC50 [1]: > 7.30
22 | Nc1ncc(-c2cccc(C(=O)NCc3ccc(F)cc3C(F)(F)F)c2)nc1C(=O)N[C@H]1CCCNC1 [Example 873, 3-amino-6-{3-[({[4-fluoro-2-(trifluoromethyl)phenyl]methyl}amino)carbonyl]phenyl}-N-[(3S)-piperidin-3-yl]pyrazine-2-carboxamide] | – | pIC50 [1]: > 7.30
23 | CNC(=O)c1nc(-c2cccc(NC(=O)Cc3ccccc3)c2)cnc1N [Example 158, 3-amino-N-methyl-6-{3-[(phenylacetyl)amino]phenyl}pyrazine-2-carboxamide] | 6.00 to 7.30 | –
24 | CNC(=O)c1nc(-c2cccc(CNCc3cccc(F)c3F)c2)cnc1N [Example 389, 3-amino-6-[3-({[(2,3-difluorophenyl)methyl]amino}methyl)phenyl]-N-methylpyrazine-2-carboxamide] | 6.00 to 7.30 | –
25 | CNC(=O)c1nc(-c2noc(-c3ccco3)n2)cnc1N [Example 75, 3-amino-6-(5-furan-2-yl-1,2,4-oxadiazol-3-yl)-N-methylpyrazine-2-carboxamide] | ≤ 5.00 | –
26 | CNCCCNC(=O)c1nc(-c2cccc(CN[C@H]3CCc4ccccc43)c2)cnc1N [Example 597, 3-amino-6-(3-{[(1S)-2,3-dihydro-1H-inden-1-ylamino]methyl}phenyl)-N-[3-(methylamino)propyl]pyrazine-2-carboxamide] | – | pIC50 (Table 11, Chk1 only): > 7.30
27 | CNC(=O)c1nc(-c2cccc(CNC(=O)c3ccc(C(C)(C)C)cc3)c2)cnc1N [Example 378, 3-amino-6-{3-[({[4-(1,1-dimethylethyl)phenyl]carbonyl}amino)methyl]phenyl}-N-methylpyrazine-2-carboxamide] | 6.00 to 7.30 | –
28 | CNC(=O)c1nc(-c2cccc(C(=O)N[C@@H]3CCNC3)c2)cnc1N [Example 358, 3-amino-N-methyl-6-(3-{[(3R)-pyrrolidin-3-ylamino]carbonyl}phenyl)pyrazine-2-carboxamide] | 5.00 to 6.00 | –
29 | CNC(=O)c1nc(-c2cccc(C#N)c2)cnc1N [Example 165, 3-amino-6-(3-cyanophenyl)-N-methylpyrazine-2-carboxamide] | 5.00 to 6.00 | –

The next lines start with results.

Row | pIC50 | Structure (SMILES) | further results
30 | 6.00 to 7.30 | CNC(=O)c1nc(-c2cccc(C(=O)NCC3CCN(Cc4ccccc4)C3)c2)cnc1N (stereo not drawn) [Example 394, 3-amino-N-methyl-6-{3-[({[1-(phenylmethyl)pyrrolidin-3-yl]methyl}amino)carbonyl]phenyl}pyrazine-2-carboxamide] | –
31 | 6.00 to 7.30 | CNC(=O)c1nc(-c2cccc(C(=O)NCc3ccc(-c4cccnc4)cc3)c2)cnc1N [Example 414, 3-amino-N-methyl-6-[3-({[(4-pyridin-3-ylphenyl)methyl]amino}carbonyl)phenyl]pyrazine-2-carboxamide] | –
32 | > 7.30 | CNC(=O)c1nc(-c2cccc(CNCc3ccccc3F)c2)cnc1N [Example 399, 3-amino-6-[3-({[(2-fluorophenyl)methyl]amino}methyl)phenyl]-N-methylpyrazine-2-carboxamide] | –
33 | 6.00 to 7.30 | CNC(=O)c1nc(-c2cccc(CNCc3cccc(Oc4ccccc4)c3)c2)cnc1N [Example 395, 3-amino-N-methyl-6-{3-[({[3-(phenyloxy)phenyl]methyl}amino)methyl]phenyl}pyrazine-2-carboxamide] | –
